Assay results: patent publication US20260365698A1, “STAPLED PEPTIDES FOR SENSITIZATION OF CANCER TO TREATMENT” (Purdue Research Foundation, priority 2022, published 2026)
Bridge positions count the residues as written; N and C are the ends. Square brackets hold non-standard residues; d marks the D form. Peptide text beside a SMILES is read from it. S5 = C=CCCC[C@](C)(N)C(=O)O

Assays:
[1] = tested on: glutathione (GSH) in A549 cells; assay: GSH-Glo glutathione quantification; format: cell-based; settings: 24 hours
Protocol: Data are from three independent experiments with standard deviation. ****p<0.0001, one-way ANOVA.
The manufacturer's instructions were followed. Cells were plated at a density of 20,000 cells/ml and treated with various concentrations of NIS for 24 hours.

MafG = target: T1, MafG (Homo sapiens, UniProt O15525); assay: Immunoprecipitation (biotinylated pull-down) assay; format: binding; settings: 20-fold unlabeled N1S
T1 construct: made in house; host or cells: E. coli Rosetta (DE3), vector pET15B, Ni-NTA purified
T1 sequence (O15525 whole entry): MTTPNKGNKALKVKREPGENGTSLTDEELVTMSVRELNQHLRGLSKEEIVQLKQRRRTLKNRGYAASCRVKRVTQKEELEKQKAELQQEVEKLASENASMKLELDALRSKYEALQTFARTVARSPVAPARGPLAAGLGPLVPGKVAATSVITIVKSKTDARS
Protocol: To show direct interaction between compound NIS and MafG, an immunoprecipitation assay was carried out with His-tagged, purified MafG and biotin-labeled compound NTS peptide. Briefly, a Pierce™ Biotinylated Protein Interaction Pull-Down Kit was purchased from Thermo Fisher, and manufacturer's instructions were followed. Purified His-tagged MafG and biotin-tagged NIS were used as […] proteins. For competition experiments, 20× unlabeled NIS was added after 1 hour incubation with MafG.

Nrf2 = assay: Dual luciferase assay, NQO1-ARE firefly / TK-Renilla reporter; format: cell-based; settings: HEK-293T cells; for inhibition of Nrf2 activity: 16 hours, 50 μM in FIG. 4A
Protocol: The results are averages from three replicates.
The peptides from Example 1 were screened for Nrf2 inhibition using a previously developed dual luciferase assay. Ren et al., Brusatol enhances the efficacy of chemotherapy by inhibiting the Nrf2-mediated defense mechanism, Biological Sciences 108(4): 1433-1438 (2011). Briefly, HEK-293T cells stably expressing ARE-firefly luciferase and TK-Renilla luciferase were used. The cells were treated with different concentrations of compounds N1 (SEQ ID NO: 3), N1 S (SEQ ID NO: 6), N2 (SEQ ID NO: 4), N2S (SEQ ID NO: 7), N3 (SEQ ID NO: 5), and N3S (SEQ ID NO: 8) for 16 hours. The cells were lysed in 1× passive lysis buffer, and both firefly luciferase and Renilla luciferase activities were measured using the Promega Dual-Luciferase™ Reporter (DLR™) Assay System and a luminometer (Turner Biosystems 20/20^n Luminometer). The samples were in triplicate for all concentrations of compounds (n=3).

## CC[C@H](C)[C@H](NC(C)=O)C(=O)N[C@H](C(=O)N[C@@H](CCC(=O)O)C(=O)N[C@@H](CC(C)C)C(=O)N[C@@H](CCC(=O)O)C(=O)N[C@@]1(C)CCCC=CCCC[C@@](C)(C(=O)N[C@@H](CC(C)C)C(=O)N[C@@H](CCCCN)C(=O)N[C@@H](CC(=O)O)C(=O)N[C@@H](CCC(=O)O)C(=O)N[C@@H](CCCCN)C(=O)N[C@@H](CCC(=O)O)C(N)=O)NC(=O)[C@H](CC(=O)O)NC(=O)[C@H](CC(C)C)NC(=O)[C@H](CC(=O)O)NC1=O)C(C)C [N1S] (Ac-IVELE[S5]DLD[S5]LKDEKE-NH2; staple 6-10)
[1]
  glutathione (GSH) levels: Significant reductions
MafG
  competition of N1S-biotin/MafG interaction by unlabeled peptide: could be competed away
Nrf2
  inhibition of Nrf2 activity: inhibit Nrf2
Nrf2; listed as NIS
  inhibition of Nrf2 activity: most potent inhibition of Nrf2 activity
Nrf2; FIG. 4B
  dose response for Nrf2 inhibition: showed a dose-response curve for Nrf2 inhibition
